Source: PubChem BioAssay (NCI)
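Five concentrations, 48 hours, 96-well plates. The concentration for 50% growth inhibition is given as GI50. At the TGI there is no net growth.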

How the values were obtained:
Assay in all cases: NCI anticancer screen, dose series, 48 h
[1] = tested on: SW-620 colon
[2] = tested on: HOP-62 NSCLC
[3] = tested on: LOX IMVI melanoma
[4] = tested on: SK-MEL-2 melanoma
[5] = tested on: SNB-19 CNS
[6] = tested on: U251 CNS
[7] = tested on: M14 melanoma
[8] = tested on: T-47D breast
[9] = tested on: COLO 205 colon
[10] = tested on: RXF 393 renal

## CCCC(=O)Nc1ncnc2c1ncn2C1OC2COP(=O)(O)OC2C1OC(=O)CCC (stereo not drawn)
[1]
  GI50: > 1000 µM
  TGI: > 1000 µM
[2]
  GI50: > 1000 µM
  TGI: > 1000 µM
[3]
  GI50: > 1000 µM
  TGI: > 1000 µM
[4]
  GI50: > 1000 µM
  TGI: > 1000 µM
[5]
  GI50: > 1000 µM
  TGI: > 1000 µM
[6]
  GI50: > 1000 µM
  TGI: > 1000 µM
[7]
  GI50: > 1000 µM
  TGI: > 1000 µM
[8]
  GI50: > 1000 µM
  TGI: > 1000 µM
[9]
  GI50: > 1000 µM
  TGI: > 1000 µM

## COC(=O)C(C(=O)C(=O)Nc1ccc([N+](=O)[O-])cc1)c1nc2cc(C)c(C)cc2[nH]c1=O (stereo not drawn)
[1]
  TGI: > 100 µM
[10]
  TGI: > 100 µM
[2]
  TGI: > 100 µM
[3]
  TGI: > 100 µM
[5]
  TGI: > 100 µM
[6]
  TGI: > 100 µM
[7]
  TGI: > 100 µM
[9]
  TGI: > 100 µM

## O=c1nc(-c2ccccc2)scc1-c1ccccc1
[1]
  TGI: > 100 µM
[10]
  TGI: > 100 µM
[2]
  TGI: > 100 µM
[4]
  TGI: > 100 µM
[5]
  TGI: > 100 µM
[6]
  TGI: > 100 µM
[7]
  TGI: > 100 µM
[9]
  TGI: > 100 µM

## CCCN(CCC)c1ccc(/C=N/NC(=O)c2cccnc2)cc1
[1]
  GI50: 18.1 µM
  TGI: > 100 µM
[10]
  GI50: 19.2 µM
  TGI: 42.1 µM
[2]
  GI50: 37.9 µM
  TGI: > 100 µM
[3]
  GI50: 17.3 µM
  TGI: 58.5 µM
[5]
  GI50: 53.8 µM
  TGI: > 100 µM
[6]
  GI50: 26.9 µM
  TGI: > 100 µM
[8]
  GI50: 28.1 µM
  TGI: > 100 µM
[9]
  GI50: 31.5 µM
  TGI: > 100 µM

## CC1=C2[C@@H](c3ccccc3)C3C=CC2(c2ccccc23)N(C(=O)Nc2cccc3ccccc23)C1=O (stereo partly drawn)
[1]
  TGI: > 100 µM
[2]
  TGI: > 100 µM
[3]
  TGI: > 100 µM
[5]
  TGI: > 100 µM
[6]
  TGI: > 100 µM
[7]
  TGI: > 100 µM
[9]
  TGI: > 100 µM

## CNC(=O)OCc1cc2ccncc2c2c1[nH]c1ccccc12
[1]
  TGI: > 100 µM
[10]
  TGI: 8.39 µM
[2]
  TGI: 55 µM
[3]
  TGI: > 100 µM
[4]
  TGI: > 100 µM
[5]
  TGI: > 100 µM
[6]
  TGI: > 100 µM
[7]
  TGI: > 100 µM
[9]
  TGI: > 100 µM

## N#Cc1nc(Nc2ccc(Cl)cc2)sc1N
[1]
  TGI: > 69.1 µM
[2]
  TGI: 46 µM
[3]
  TGI: 13.7 µM
[4]
  TGI: 47.3 µM
[5]
  TGI: > 100 µM
[6]
  TGI: 34.1 µM
[7]
  TGI: > 85.7 µM
[9]
  TGI: 47.7 µM

## O=C1CCCC(=O)C1C(=O)c1ccc(C(F)(F)F)cc1[N+](=O)[O-]
[1]
  GI50: > 100 µM
  TGI: > 100 µM
[2]
  GI50: > 100 µM
  TGI: > 100 µM
[5]
  GI50: > 100 µM
  TGI: > 100 µM
[6]
  GI50: > 100 µM
  TGI: > 100 µM
[7]
  GI50: > 100 µM
  TGI: > 100 µM
[8]
  GI50: > 100 µM
  TGI: > 100 µM
[9]
  GI50: > 100 µM
  TGI: > 100 µM

## COc1cc(C2C(C(=O)OCc3ccccc3)=C(C)NC(C)=C2C(=O)OCc2ccccc2)cc(OC)c1OC
[2]
  GI50: 12.1 µM
  TGI: 66.5 µM
[5]
  GI50: 5.73 µM
  TGI: > 100 µM
[6]
  GI50: 4.37 µM
  TGI: > 100 µM
[8]
  GI50: 3.67 µM
  TGI: > 100 µM

## COc1cc2c(cc1OC)C1(c3ccccc3)ON=C(c3ccccc3)N1CS2 (stereo not drawn)
[1]
  TGI: > 100 µM
[10]
  TGI: > 100 µM
[2]
  TGI: > 100 µM
[3]
  TGI: > 100 µM
[4]
  TGI: > 100 µM
[5]
  TGI: > 100 µM
[6]
  TGI: > 100 µM
[7]
  TGI: > 100 µM
[9]
  TGI: > 100 µM

## Cc1nn(-c2ccccc2)c(C)c1/C=N/N1CCN(Cc2ccccc2)CC1
[1]
  GI50: > 100 µM
  TGI: > 100 µM
[10]
  GI50: > 100 µM
  TGI: > 100 µM
[2]
  GI50: 16.3 µM
  TGI: 74.4 µM
[3]
  GI50: 44 µM
  TGI: > 100 µM
[4]
  GI50: 60.7 µM
  TGI: > 100 µM
[5]
  GI50: > 100 µM
  TGI: > 100 µM
[6]
  GI50: 67.5 µM
  TGI: > 100 µM
[9]
  GI50: 41 µM
  TGI: > 100 µM

## COc1cc([N+](=O)[O-])c(OC)cc1-c1nc2n(c1/C(N)=N/C(=N)N)CCS2
[1]
  GI50: > 100 µM
  TGI: > 100 µM
[10]
  GI50: 42.2 µM
  TGI: > 100 µM
[2]
  GI50: 6.23 µM
  TGI: 50.6 µM
[3]
  GI50: 89.1 µM
  TGI: > 100 µM
[5]
  GI50: 10.2 µM
  TGI: > 100 µM
[6]
  GI50: 9.12 µM
  TGI: > 100 µM
[7]
  GI50: > 100 µM
  TGI: > 100 µM
[8]
  GI50: 86.8 µM
  TGI: > 100 µM
[9]
  GI50: > 100 µM
  TGI: > 100 µM

## O=C(CC(=O)c1cccc([N+](=O)[O-])c1)C(=O)Nc1nc([N+](=O)[O-])cs1
[1]
  TGI: > 100 µM
[10]
  TGI: > 100 µM
[2]
  TGI: > 100 µM
[3]
  TGI: > 100 µM
[4]
  TGI: > 100 µM
[5]
  TGI: > 100 µM
[6]
  TGI: > 100 µM
[7]
  TGI: > 100 µM
[9]
  TGI: > 100 µM

## CC1OC(n2cc(I)c(=O)[nH]c2=O)C=CC1=O (stereo not drawn)
[1]
  TGI: 26.8 µM
[2]
  TGI: 32.7 µM
[3]
  TGI: 19.6 µM
[4]
  TGI: 32.4 µM
[5]
  TGI: 32.1 µM
[6]
  TGI: 27.6 µM
[7]
  TGI: 30.6 µM
[9]
  TGI: 30.7 µM

## O=c1[nH]c(=O)n(C2OC(CO)C(O)C2O)cc1OCc1ccccc1 (stereo not drawn)
[1]
  TGI: > 71.8 µM
[10]
  TGI: > 83.5 µM
[2]
  TGI: > 100 µM
[3]
  TGI: > 31.6 µM
[4]
  TGI: > 100 µM
[5]
  TGI: > 100 µM
[6]
  TGI: > 72.2 µM
[7]
  TGI: > 100 µM
[9]
  TGI: > 85.2 µM

## CCCCCCCCCCNC(=S)OCCCC
[1]
  TGI: 35.2 µM
[10]
  TGI: 59.5 µM
[2]
  TGI: 68.7 µM
[3]
  TGI: 29.8 µM
[4]
  TGI: 27.7 µM
[5]
  TGI: > 100 µM
[6]
  TGI: 37.5 µM
[7]
  TGI: 52.4 µM

## COc1ccc(C(=O)C(CC2C(=O)CC(C)(C)C(C(=O)C(=O)Nc3c(C)cccc3C)C2=O)c2ccc(OC)cc2)cc1 (stereo not drawn)
[1]
  TGI: > 100 µM
[10]
  TGI: > 100 µM
[2]
  TGI: > 100 µM
[3]
  TGI: > 100 µM
[4]
  TGI: > 100 µM
[5]
  TGI: > 100 µM
[6]
  TGI: > 100 µM
[7]
  TGI: > 100 µM
[9]
  TGI: > 100 µM

## CN1CCc2cc(O)c3cc2C1Cc1ccc(cc1)Oc1cc(ccc1O)CC1c2c(cc4c(c2O3)OCO4)CCN1C (stereo not drawn)
[10]
  TGI: 60.2 µM
[4]
  TGI: 34.2 µM
[5]
  TGI: > 100 µM
[6]
  TGI: > 100 µM
[7]
  TGI: 32.2 µM
[9]
  TGI: 28.8 µM

## CCOC1=C2C(C)(CCC3[C@@]4(C)C=CC(=O)C(C)(C)C4CC(O)[C@@]23C)C(c2ccoc2)C1=O (stereo partly drawn)
[1]
  TGI: 46.2 µM
[10]
  TGI: 34 µM
[2]
  TGI: 36.8 µM
[3]
  TGI: 29.1 µM
[4]
  TGI: 43.4 µM
[5]
  TGI: > 100 µM
[6]
  TGI: 34.8 µM
[7]
  TGI: > 100 µM
[9]
  TGI: 29.3 µM

## C[CH2][Sn]([Cl])([CH2]C)[CH2]C
[1]
  GI50: 0.57 µM
  TGI: 10.9 µM
[2]
  GI50: 1.04 µM
  TGI: 4.14 µM
[3]
  GI50: 0.386 µM
  TGI: 2.06 µM
[4]
  GI50: 0.606 µM
  TGI: 4.48 µM
[5]
  GI50: 1.97 µM
  TGI: 10.6 µM
[6]
  GI50: 0.771 µM
  TGI: 2.97 µM
[7]
  GI50: 1.27 µM
  TGI: 5.46 µM
[9]
  GI50: 1.48 µM
  TGI: 3.8 µM
